The record followed here is ChEMBL document CHEMBL3430912, “GSK Tres Cantos Anti-Kinetoplastid Screening (TCAKS) Data”.

As a reminder, the IC50 is the concentration that gives 50% inhibition.

In data set [1] the test system is Trypanosoma cruzi. Description: (§1) GSK_TCAKS: pIC50 Trypanosoma cruzi Imaging: Infected Cells. […] Cells were then washed once with PBS before infection. T. cruzi trypomastigotes, collected at days 5 to 8 after infection from LLC-MK2 parasite infected cultures, were allowed to swim out for 4h at 37C from a centrifuged pellet (2,500 rpm/10 min/room temperature). Trypomastigotes were then collected and counted in a CASY Cell Counter. Trypomastigotes, in supplemented DMEM, were added to H9c2 cultures in a multiplicity of infection of 1 and incubated for 18 h. Cells were washed once with PBS before incubation of the infected H9c2 monolayer with trypsin (Life-Technologies) to detach cells from the flask. Cells were counted in a CASY Cell Counter using a 150 um capillary and their density set at 5 * 10^4 cells per mL in supplemented assay DMEM. Infected H9c2 were dispensed into 384-well poly-lysine coated assay plates at 50uL per well using a Multidrop Combi dispenser. After seeding them, the plates were incubated at 37C, 5% CO2 for 72h. Cultures were then fixed and stained by addition of 50 uL of a solution containing 8% formaldehyde and 4 uM DRAQ5 DNA dye (BioStatus, UK) per well. […] Five images were collected per well for reliable statistical analysis. Automated image analysis was performed with a script developed on Acapella High Content Imaging and Analysis Software (PerkinElmer). Output: percentage of infected cells per well as a second infection marker. To be noted: H9c2, 4 h. In kind it is functional, organism-based, Rattus norvegicus.

Data set [2] concerns Trypanosoma brucei brucei. Description: GSK_TCAKS: pIC50 Trypanosoma brucei viability assay using fluorescence intensity. Assay plates (1536-well) were prepared by dispensing 25nL of compound solution per well using an Echo acoustic dispenser (Labcyte). In kind it is functional, organism-based. To be noted: Lister 427, 2 h.
Data set [3] concerns Leishmania donovani. The data set is described as follows: GSK_TCAKS: pIC50 Leishmania donovani Imaging: Infected Macrophages. Assay plates (384-well) were prepared by adding 250nL of compound to each well. For single shot assay, the final compound concentration was 5 uM. […] Automated image analysis was performed with a script developed on Acapella High Content Imaging and Analysis Software (PerkinElmer). Output: Percent of infected macrophage cells were reported for each well. The data set is classed as functional, organism-based, Homo sapiens. The conditions noted are these: THP-1.

Data set [4] can be described thus: GSK_TCAKS: pIC50 HepG2 human cell line viability assay using luminiscence. […] Seeding density was checked to ensure that new mono-layers were not more than 50% confluent at the time of harvesting. Cell suspension was added to 500 mL of the same medium at a final density of 1.2 * 10^5 cells/mL. This cell suspension was dispensed (25 uL, 3000 cells per well) into 384-well clear-bottom plates using a Multidrop Combi dispenser. Prior to addition of the cell suspension, the screening compounds (250 nL) were pre-dispensed into the plates with an Echo liquid handler. Plates were incubated for 48 h at 37C, 5% CO2. After incubation, plates equilibrated at room temperature for 30 min before proceeding to develop the luminescent signal. The signal developer, CellTiter-Glo Reagent, was allowed to equilibrate at room temperature for 30 min and added to the plates (25uL per well) using a Multidrop Combi dispenser. Plates were left for 10 min at room temperature for stabilization and then read using a ViewLux. In kind it is toxicity, cell-based.

The test system of data set [5] is Trypanosoma cruzi. The data set is described as follows: GSK_TCAKS: pIC50 Trypanosoma cruzi Imaging: Amastigotes/Cell. […] Cells were then washed once with PBS before infection. T. cruzi trypomastigotes, collected at days 5 to 8 after infection from LLC-MK2 parasite infected cultures, were allowed to swim out for 4h at 37C from a centrifuged pellet (2,500 rpm/10 min/room temperature). Trypomastigotes were then collected and counted in a CASY Cell Counter. Trypomastigotes, in supplemented DMEM, were added to H9c2 cultures in a multiplicity of infection of 1 and incubated for 18 h. Cells were washed once with PBS before incubation of the infected H9c2 monolayer with trypsin (Life-Technologies) to detach cells from the flask. Cells were counted in a CASY Cell Counter using a 150 um capillary and their density set at 5 * 10^4 cells per mL in supplemented assay DMEM. Infected H9c2 were dispensed into 384-well poly-lysine coated assay plates at 50uL per well using a Multidrop Combi dispenser. After seeding them, the plates were incubated at 37C, 5% CO2 for 72h. Cultures were then fixed and stained by addition of 50 uL of a solution containing 8% formaldehyde and 4 uM DRAQ5 DNA dye (BioStatus, UK) per well. […] Five images were collected per well for reliable statistical analysis. Automated image analysis was performed with a script developed on Acapella High Content Imaging and Analysis Software (PerkinElmer). Output: number of amastigotes per cell as infection level measurement. In kind it is functional, organism-based, Rattus norvegicus. The conditions noted are these: H9c2, 4 h.

For data set [6], the system named is Leishmania donovani. The data set is described as follows: GSK_TCAKS: pIC50 Leishmania donovani Imaging: THP-1 Host Macrophages. Assay plates (384-well) were prepared by adding 250nL of compound to each well. For single shot assay, the final compound concentration was 5 uM. […] Automated image analysis was performed with a script developed on Acapella High Content Imaging and Analysis Software (PerkinElmer). Output: THP-1 cell count were reported for each well. The data set is classed as functional, organism-based, Homo sapiens.

Data set [7] deals with Trypanosoma cruzi. The data set is described as §1, with “H2C9” for “Trypanosoma cruzi”, “H9c2 Host Cardiomyocytes.” for “Infected Cells.”, “Number” for “percentage”, “H9c2 Host Cardiomyocytes nuclei to determine drug-related cytotoxicity.” for “infected cells per well as a second infection marker.”. The data set is classed as functional, organism-based, Rattus norvegicus. The conditions noted are these: H9c2, 4 h.

Another data set concerns NIH3T3. Description: GSK_TCAKS: pIC50 NIH 3T3 cell line viability assay using luminiscence. Tissue culture surface treated assay plates (1536-well) were used. […] The 100% cells survival control was determined exposing the host-cells to a 0.5% DMSO concentration, whereas the 100% toxicity control was achieved by seeding the cells in presence of Amphotericin B at 50uM. Plates were incubated for four days at 37C, 5% CO2. The assay readout was developed by addition of 5uL of CellTiter-Glo Reagent following the manufacturer's instructions. Luminiscence was measured using a ViewLux. In kind it is functional, cell-based. To be noted: Mus musculus, NIH3T3, 96 h. A general note: ATP-based viability assays read luminescence as a measure of living cells.

Data set [8] deals with Trypanosoma brucei brucei. The data set is described as follows: GSK_TCAKS: pIC50 Trypanosoma brucei viability assay using luminiscence. Assay plates (1536-well) were prepared. T. brucei cultures were harvested and counted in a CASY cell counter. A parasite suspension was prepared at a final concentration of 5 * 10^4 cells/mL in complete HMI9 medium and 6uL was dispensed to all wells containing compounds using a Multidrop Combi dispenser. 6uL of HMI9 media with 0.4% DMSO were dispensed to control columns. Plates were incubated for 24 h at 37C, 5% CO2 then tempered for 10 min at room temperature. ATP content was quantified by adding 4 uL of CellTiter-Glo Reagent (Promega) according to the manufacturer's instructions. Luminescence was measured using a ViewLux. The data set is classed as functional, organism-based. The conditions noted are these: Lister 427, CASY.

For data set [9], the target named is Sterol 14-alpha demethylase (Trypanosoma cruzi (strain CL Brener), UniProt Q7Z1V1). The data set is described as follows: GSK_TCAKS: pIC50 CYP51 from Trypanosoma cruzi. The data set is classed as functional.
Sterol 14-alpha demethylase, sequence (Q7Z1V1 whole entry): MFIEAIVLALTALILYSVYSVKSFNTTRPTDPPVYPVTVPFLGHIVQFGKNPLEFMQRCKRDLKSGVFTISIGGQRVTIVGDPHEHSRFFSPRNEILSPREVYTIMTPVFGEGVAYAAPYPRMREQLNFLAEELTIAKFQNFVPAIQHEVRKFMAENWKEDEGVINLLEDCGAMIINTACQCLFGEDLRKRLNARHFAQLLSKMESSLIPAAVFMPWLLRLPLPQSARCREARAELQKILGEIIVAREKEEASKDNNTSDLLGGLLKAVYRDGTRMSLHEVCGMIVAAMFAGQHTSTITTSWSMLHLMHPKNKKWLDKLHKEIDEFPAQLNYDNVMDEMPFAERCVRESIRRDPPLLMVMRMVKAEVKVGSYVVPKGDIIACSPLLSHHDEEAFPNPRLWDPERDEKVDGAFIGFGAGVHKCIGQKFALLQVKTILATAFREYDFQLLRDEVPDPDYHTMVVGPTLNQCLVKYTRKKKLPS
Data set [10] deals with Leishmania donovani. Description: GSK_TCAKS: pIC50 Leishmania donovani Imaging: Amastigotes/Macrophages. Assay plates (384-well) were prepared by adding 250nL of compound to each well. For single shot assay, the final compound concentration was 5 uM. […] Automated image analysis was performed with a script developed on Acapella High Content Imaging and Analysis Software (PerkinElmer). Output: Average number of amastigotes per macrophage cell were reported for each well. In kind it is functional, organism-based, Homo sapiens. To be noted: THP-1.

Data set [11] relates to Leishmania donovani. Description: GSK_TCAKS: pIC50 Leishmania donovani viability assay using fluorescence intensity. Assay plates (1536-well) were prepared by adding 30nL per well of compound. For single shot assay, the final compound concentration was 5uM. […] Briefly, eGFP LdBOB axenic amastigotes were harvested, fixed and counted in a CASY cell counter (Roche-Applied Science). A final concentration of 1.5 * 10^5 cells per well were prepared in amastigote media containing 500 U/mL penicillin/streptomycin (Invitrogen) and 6uL was dispensed to each experimental well using a Multidrop Combi dispenser (Thermo Scientific). 6uL of assay media was dispensed to control columns used as reference for 100% compound response. Following incubation for 72 h at 37C, 5% CO2, 2 uL of resazurin was added to each well at a final concentration of 0.5 mM in phosphate buffered saline (PBS) with IGEPAL (Sigma-Aldrich), 0.05% (v/v). In kind it is functional, organism-based. A general note: Alamar Blue is a resazurin reagent that responds to reducing activity.

The test system of data set [12] is Trypanosoma cruzi. Description: GSK_TCAKS: pIC50 Trypanosoma cruzi viability assay using beta-GAL activity. This assay was run at single shot at 5uM compound concentration per well. The biological reagents consisted of NIH-3T3 host cells and trypomastigotes parasitic cells; both cell types were set to a 3.3 * 10^5 cells/mL dilution in assay DMEM by means of a CASY cell counter device using a 60um capillary. 6 uL of the mixture were dispensed per well (about 1 * 10^3 host-cells and 1 * 10^3 parasites) with a Multidrop Combi dispenser. […] In all wells, the percentage of DMSO never exceeded 0.5%. Plates incubated for four days at 37C, 5% CO2. The substrate used for the assay fluorescence intensity (FLINT) readout was resorufin-beta-D-galactopiranoside (Sigma-Aldrich) at 5uM per well. It was diluted in PBS supplemented with the soft detergent Igepal (Fluka). The data set is classed as functional, organism-based, Mus musculus. To be noted: Tulahuen, NIH3T3.

Structures are written as SMILES.

For the molecule `CN(Cc1ccc(F)cc1)c1ccc(OCC(=O)N2CCCCC2c2cccnc2)nn1` (stereo not given), the 50% inhibitory concentration (IC50) in the data set on Trypanosoma cruzi [1] is 0.398 µM; in data set [2], above 39.8 µM; with Leishmania donovani [3], above 50.1 µM; in the data set with Trypanosoma cruzi [5], 0.398 µM; with Leishmania donovani [6] it was 31.6 µM; in the data set with Trypanosoma cruzi [7], above 50.1 µM. Also, the IC50 was 10 µM in the data set on NIH3T3; above 39.8 µM in [8]; 0.0501 µM in data set [9]; above 50.1 µM with Leishmania donovani [10]; 15.8 µM with Leishmania donovani [11]; 0.316 µM with Trypanosoma cruzi [12]. This molecule gave an IC50 at 48 h in data set [4] above 100 µM.
In the case of `Cc1ccc(NC(=O)C(C)n2nc([N+](=O)[O-])c(Br)c2C)cc1Cl` (stereo not given), the IC50 is 6.31 µM in the data set on Trypanosoma cruzi [1]; 15.8 µM in data set [2]; above 50.1 µM in the data set on Leishmania donovani [3]; 3.16 µM with Trypanosoma cruzi [5]; above 50.1 µM with Leishmania donovani [6]; above 50.1 µM in the data set on Trypanosoma cruzi [7]. Also, the IC50 in the data set with NIH3T3 was 12.6 µM; in data set [8] it was above 39.8 µM; in data set [9], above 100 µM; in the data set with Leishmania donovani [10] it was above 50.1 µM; with Leishmania donovani [11], above 50.1 µM; in the data set on Trypanosoma cruzi [12], 2.51 µM. In data set [4], this molecule gave an IC50 at 48 h of 79.4 µM.
Consider `c1ccc(CCNCc2cncc3nc(-c4cnccn4)n(C4CCCCC4)c23)cc1`, for which the IC50 with Trypanosoma cruzi [1] is 0.126 µM; in [2] it was 31.6 µM; with Leishmania donovani [3], above 50.1 µM; with Trypanosoma cruzi [5] it was 0.126 µM; in the data set with Leishmania donovani [6] it was above 50.1 µM; in the data set with Trypanosoma cruzi [7], above 50.1 µM. Also, the IC50 was 6.31 µM in the data set with NIH3T3; above 39.8 µM in [8]; 0.1 µM in data set [9]; above 50.1 µM in the data set on Leishmania donovani [10]; above 50.1 µM in the data set on Leishmania donovani [11]; 0.316 µM in the data set on Trypanosoma cruzi [12]. The same molecule showed an IC50 at 48 h in data set [4] above 100 µM.
Take `CN(Cc1nc2ccccc2s1)C(=O)C=Cc1cc2ccccc2o1`: the IC50 with Trypanosoma cruzi [1] was 0.794 µM; in data set [2], 31.6 µM; in the data set with Leishmania donovani [3], above 50.1 µM; with Trypanosoma cruzi [5] it was 1 µM; in the data set with Leishmania donovani [6] it was above 50.1 µM; in the data set on Trypanosoma cruzi [7], above 50.1 µM. In addition, the IC50 in the data set with NIH3T3 was 31.6 µM; in data set [8] it was above 39.8 µM; in data set [9] it was 0.158 µM; with Leishmania donovani [10], 15.8 µM; in the data set on Leishmania donovani [11], 50.1 µM; with Trypanosoma cruzi [12], 0.631 µM. The same molecule had an IC50 at 48 h in data set [4] above 100 µM.
Take `CC(=O)Nc1ccc(-c2noc(CC3CCCN(Cc4cccc(F)c4C)C3)n2)cc1` (stereo not given): the IC50 in the data set on Trypanosoma cruzi [1] was 2 µM; in data set [2] it was 20 µM; in the data set on Leishmania donovani [3] it was 31.6 µM; in the data set on Trypanosoma cruzi [5], 1.26 µM; with Leishmania donovani [6] it was above 50.1 µM; in the data set on Trypanosoma cruzi [7], 31.6 µM. In addition, the IC50 with NIH3T3 is 25.1 µM; in data set [8], 25.1 µM; in data set [9], above 100 µM; in the data set with Leishmania donovani [10], 12.6 µM; in the data set on Leishmania donovani [11], 39.8 µM; in the data set with Trypanosoma cruzi [12], 1 µM. Moreover, the IC50 at 48 h in data set [4] is above 100 µM.
